Test results reported in patent US20130337486A1, “MICROFLUIDIC DEVICE FOR HIGH-[…] GRADIENT AND DOSE RESPONSE STUDIES” (UCSD Tech Transfer Office, priority 2005, published 2013).

Columns and labels:
a-Type Yeast = assay: Phenotypic dose response of single yeast cells to a pheromone gradient in the microfluidic device; format: cell-based
Description: (§1) Using a device of the invention such as that shown in FIG. 1, analysis of phenotypic dose response in single cells was performed. Yeast cells were grown in YPD media to mid-log phase, and concentrated 10-fold before loading into syringes. The maximum pheromone concentrations used in the experiments was typically 75-100 nM, with varying minimum and maximum ranges for specific experiments. Pheromone diffusion was estimated by fluorescence imaging of the diffusion of Alexa Fluor dye 555 Hydrozide (Molecular Probes), with the MW of approximately 1150 Da (cf. 1684 Da MW of the a-factor), which was used at the concentration of 5 μM. […]
(§2) Images were acquired using the Nikon Eclipse TE2000-U inverted epi-fluorescence microscope, using 20× (evaluation of the gradient values), and 100× (oil immersion; evaluation of yEGFP fluorescence) objectives. Phase contrast images were taken with automatic exposure control, whereas most fluorescence measurements involved manually specified fixed exposure times. Typical gradient measurements using Alexa Fluor 555 dye were obtained using red filter (G-2 EIC, 540/25 excitation wavelength) at a fixed exposure time of 1 sec, whereas yEGFP-mediated fluorescence was obtained using the green filter (YEL-GFP HQ, 500/20 excitation wavelength) at fixed exposure times of 3 secs. […]

Fus1-yEGFP = Fus1-yEGFP expression in yeast cell clusters exposed to a pheromone gradient; format: cell-based
Description: as §1, §2

Substance: α-factor
- phenotype after pre-incubation in high uniform pheromone concentration (a-Type Yeast; 75 nM uniform pheromone for 4 hrs): shmoo formation by all cells
- pheromone concentration range in which percentages of budded (BD), cell cycle arrest (CCA) and SM cells were comparable (a-Type Yeast; pheromone gradients from 0 up to 100 nM in test chambers): 15 to 40 nM
- pheromone concentration range with clear bimodal nuclear Fus1-yEGFP response (Fus1-yEGFP; six hours after exposure to 0-75 nM pheromone gradient): 15 to 45 nM
- difference in Fus1-yEGFP expression between SM cells and cells of all other phenotypes in the bimodal region (Fus1-yEGFP; six hours, 0-75 nM pheromone gradient, bimodal region): approximately 1.7 fold
